According to patent publication US20210300932A1, “CYCLIC PEPTIDES TARGETING ALPHA-4-BETA-7 INTEGRIN” (Zealand Pharma A/S, priority 2015, published 2021):
pIC50: −log10 of the molar value.

Tests used:
[1] = molecular target: CYP2D6 (Homo sapiens, UniProt P10635); assay: in vitro
[2] = in vitro; details: Control buffer/Buffer at 0.1 uM % Recovery
Description: (§3) An equilibrium dialysis (HTDialysis) method was used employing 50% plasma collected from CD-1 mice or Sprague-Dawley rats and incubated with K2EDTA. Test articles were assessed at 1 microM concentration in three replicates. Incubation time as 5 hours and plasma and buffer standards were assessed using LC/MS/MS. Percentage recovery was calculated as (Cbuffer+Cplasma)/[average]Cinitial, [average]Cinitial being measured in triplicate from the test samples prior to dialysis. Percentage of compound unbound was calculated as Cbuffer/Cplasma.

[3] = test system: plasma proteins; assay: in vitro; details: CD-1, mouse
Description: as §3

[4] = molecular target: CYP3A4 (Homo sapiens, UniProt P08684); assay: in vitro
CYP3A4, sequence (P08684 whole entry): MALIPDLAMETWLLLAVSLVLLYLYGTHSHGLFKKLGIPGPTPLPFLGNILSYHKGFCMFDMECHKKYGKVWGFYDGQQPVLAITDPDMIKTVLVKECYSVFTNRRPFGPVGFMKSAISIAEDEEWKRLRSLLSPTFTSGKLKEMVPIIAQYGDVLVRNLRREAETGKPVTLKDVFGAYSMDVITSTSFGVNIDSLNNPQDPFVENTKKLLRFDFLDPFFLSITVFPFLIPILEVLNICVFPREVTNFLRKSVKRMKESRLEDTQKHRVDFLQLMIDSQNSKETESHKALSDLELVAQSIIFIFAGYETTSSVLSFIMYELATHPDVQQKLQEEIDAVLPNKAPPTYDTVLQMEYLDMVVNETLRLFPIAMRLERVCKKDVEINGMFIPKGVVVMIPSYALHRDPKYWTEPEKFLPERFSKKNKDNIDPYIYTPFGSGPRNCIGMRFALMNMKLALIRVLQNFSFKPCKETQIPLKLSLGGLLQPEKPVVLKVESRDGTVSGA
Description: (§1) Cytochrome P450 Inhibition Assay
(§2) Analyses were performed using standard LC/MS/MS protocols.

[5] = molecular target: T1, CYP1A2 (Homo sapiens, UniProt P05177); assay: in vitro
T1 sequence (P05177 1-516): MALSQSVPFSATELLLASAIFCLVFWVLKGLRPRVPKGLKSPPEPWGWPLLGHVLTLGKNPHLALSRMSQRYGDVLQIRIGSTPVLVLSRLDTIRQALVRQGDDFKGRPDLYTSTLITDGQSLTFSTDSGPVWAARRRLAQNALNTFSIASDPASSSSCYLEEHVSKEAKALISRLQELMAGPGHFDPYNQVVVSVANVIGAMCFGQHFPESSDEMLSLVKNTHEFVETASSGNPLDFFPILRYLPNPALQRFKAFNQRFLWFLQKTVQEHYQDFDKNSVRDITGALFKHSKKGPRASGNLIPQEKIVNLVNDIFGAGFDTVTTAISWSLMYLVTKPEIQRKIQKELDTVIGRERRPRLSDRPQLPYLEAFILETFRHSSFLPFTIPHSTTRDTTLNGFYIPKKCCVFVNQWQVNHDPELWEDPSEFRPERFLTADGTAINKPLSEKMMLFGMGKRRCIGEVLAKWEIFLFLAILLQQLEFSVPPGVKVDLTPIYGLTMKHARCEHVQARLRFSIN
Description: as §1, §2

[6] = molecular target: CYP2C9 (Homo sapiens, UniProt P11712); assay: in vitro
CYP2C9, sequence (P11712 whole entry): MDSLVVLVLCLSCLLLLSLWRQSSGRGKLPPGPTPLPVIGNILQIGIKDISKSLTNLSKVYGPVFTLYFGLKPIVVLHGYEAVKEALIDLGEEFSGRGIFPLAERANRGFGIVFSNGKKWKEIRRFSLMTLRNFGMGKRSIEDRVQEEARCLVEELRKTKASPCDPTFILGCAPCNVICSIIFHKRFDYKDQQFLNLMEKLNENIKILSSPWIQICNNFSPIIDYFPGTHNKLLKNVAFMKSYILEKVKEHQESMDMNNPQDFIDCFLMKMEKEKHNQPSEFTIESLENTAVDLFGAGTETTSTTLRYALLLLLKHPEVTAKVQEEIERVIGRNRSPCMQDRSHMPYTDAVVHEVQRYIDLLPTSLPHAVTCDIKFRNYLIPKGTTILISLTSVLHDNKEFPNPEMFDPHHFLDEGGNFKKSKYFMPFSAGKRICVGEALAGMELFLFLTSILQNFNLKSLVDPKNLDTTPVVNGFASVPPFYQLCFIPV
Description: as §1, §2

[7] = Plasma protein binding determination, equilibrium dialysis, mouse plasma; details: first table; buffer/buffer control
Description: as §3

[8] = test system: plasma proteins; assay: as above; details: CD-1, mouse, % recovery, Mouse plasma, equilibrium dialysis
Description: as §3

[9] = mouse, in vivo
Description: (§4) In Vivo Pharmacokinetic Assessments in Rodents
(§5) Oral bioavailability of test compounds was conducted by assessing plasma exposure of following one or two oral doses in mice and, in some cases, comparing said plasma exposure with that following a single intravenous dose of the same compound.
(§6) Body weights were recorded on the day of dosing.
(§7) Food restriction: Animals dosed p.o. were deprived of food overnight and fed ˜2 h following dosing.
(§8) Dosing: The formulation containing the test compound were administered p.o. by gavage with disposable feeding needles.
(§9) Sample collection: Terminal blood and tissue samples were collected under O2/CO2 anesthesia by cardiac puncture.
(§10) Sample processing/storage: All blood samples were transferred into K2EDTA tubes on wet ice and centrifuged within 5 min (3200×g for 5 min at 4° C.) to obtain plasma. Samples were stored frozen at −80° C. until bioanalysis.
(§11) Bioanalytical Method Qualification and Sample Analysis:
(§12) Instrumentation: AB Sciex API 4000 Q-TRAP MS/MS system equipped with an Agilent LC system with a binary pump, a solvent degasser, a thermostatted column compartment, a CTC autosampler and a divert valve installed between the column and mass spectrometer inlet.

[10] = test system: DSS experimental model of ulcerative colitis; assay: 8-Day efficacy study in DSS model (therapeutic); assay type: in vivo, C57BI/6 mice; details: 40 mg/kg p.o.
Description: The STDs in ascending order bracketing the study samples and dosing solutions • 1. The study samples • 2.
Description of Tested Compounds
Animals. Female C57BI/6 mice (Charles River, St-Constant, Qc), weighting 16-19 g at delivery were used for this study. Following arrival in the animal facility, all animals were subjected to a general health evaluation. An acclimation period of 7-14 days was allowed before the beginning of the study.
Oral dosing of the test article and the vehicle. From Day 5 to Day 8, nacellins and the vehicle were administered as a single slow bolus (over approximately 5 seconds) via oral route (p.o.), according to the procedure of administration of solution by gavage: the animal was firmly restrained. A bulb-tipped gastric gavage needle of 22G was passed through the side of the mouth and was advanced towards the oesophagus. The test articles and the vehicle were dosed orally at 5 mL/kg.
Intraperitoneal dosing of the test articles and the vehicle. On day 5, DATK32 antibody was administered in only on Day 5, as a single slow bolus (over approximately 5 seconds) via the i.p. route. […] Intraperitoneal administration was performed accordingly to the following procedure: the mouse was restrained manually and held with the head and body tilted downward. The tip of the needle (27 G) was inserted through the skin and just past the abdominal wall. A short pull back of the plunger of the syringe was done prior to administration of the solution to make sure that the syringe was not inserted in any abdominal organ (fluid would be pulled back into the syringe in this case).
Inflammation Score. Once the mouse was euthanized, the colon was collected and its length was measured. Lesion length was also measured. Colon inflammation was scored based on severity of oedema and ulceration.
Disease Activity Index (DAI) assessment. Body weight and DAI were measured on Day 5 in order to distribute DSS-treated animals in two uniform groups prior dosing. Specific symptoms associated to UC were scored based on the severity of each particular symptoms: 1—blood in stool (negative hemoccult, positive hemoccult, blood traces in stool visible, rectal bleeding); 2—stool consistency (normal, soft but still formed, very soft, diarrhea); 3—posture and fur (normal; ruffled fur; ruffled fur combined to slight hunched posture and slight dehydration; ruffled fur combined to hunched posture, dehydration and altered walking; moribund (euthanasia is mandatory before the animal reach this point). The overall DAI score was the sum of the three parameters (maximum score 9). Body weight measurement and DAI assessment were performed also on Day 8 to evaluate the effect of the treatments.
Collection of samples. On Day 8, five hours after ET02451-01, ET02452-01 and vehicle dosing, the animals were euthanized by cardiac puncture under general anesthesia, according to the “Guide to the Care and Use of Experimental Animals” published by the CCAC. Blood was transferred in a Sarstedt tube containing EDTA. Mesenteric and peripheral (inguinal, auxiliary and brachial) lymph nodes were collected and transferred on ice in corresponding tubes containing cold PBS. Nodes were kept on ice until tissue preparation.
Cell population labeling. Blood was withdrawn by cardiac puncture and collected on EDTA-coated tubes. Mensenteric lymph nodes (MLN) and peripheral lymph nodes (PLN) were also collected. Mononuclear cells from the tissues will be isolated using density gradient (Lympholyte) and they were stained with fluorescent antibodies. […] After washes, cells were fixed using BD Fix Solution. Percentage of different subpopulations of T lymphocytes were then analysed using FACSCalibur cytometer. Antibodies employed were the same as listed for the single-dose PD studies above.

[11] = In vivo pharmacokinetic assessments in rodents; details: for F: plasma
Description: as §4, §5, §6, §7, §8, §9, §10, §11, §12

[12] = in vivo; details: male, CD-1, mouse
Description: as §4, §5, §6, §7, §8, §9, §10, §11, §12

CYP2D6, sequence (P10635 whole entry): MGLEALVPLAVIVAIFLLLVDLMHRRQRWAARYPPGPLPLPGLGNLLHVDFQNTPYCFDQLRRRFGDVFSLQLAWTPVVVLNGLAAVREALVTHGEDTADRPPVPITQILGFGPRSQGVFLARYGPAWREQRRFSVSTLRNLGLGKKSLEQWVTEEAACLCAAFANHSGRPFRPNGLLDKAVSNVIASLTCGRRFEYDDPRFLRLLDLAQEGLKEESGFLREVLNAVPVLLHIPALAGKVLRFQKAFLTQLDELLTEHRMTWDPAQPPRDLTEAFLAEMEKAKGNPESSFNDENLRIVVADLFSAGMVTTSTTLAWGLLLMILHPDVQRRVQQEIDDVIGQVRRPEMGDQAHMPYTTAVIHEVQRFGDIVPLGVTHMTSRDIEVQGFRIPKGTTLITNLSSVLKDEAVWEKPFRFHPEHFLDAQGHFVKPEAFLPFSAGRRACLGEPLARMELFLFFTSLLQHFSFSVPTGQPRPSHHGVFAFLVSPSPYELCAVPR

Structure (SMILES): CC[C@H](C)[C@@H]1NC(=O)[C@H](CC(=O)O)NC(=O)[C@H](CC(C)C)NC(=O)[C@H](Cc2ccc3ccccc3c2)NC(=O)[C@@H]2CCCN2[C@H](C(=O)NC(C)(C)C)[C@H](C)NC1=O [Compound No. 15]
- pIC50 [1]: < 4.82
- recovery at 5 hours, 0.1 uM [2]: 70%
- fraction unbound at 5 hours, 1 microM ([3]; % unbound (Cbuffer/Cplasma) 1): 0.1
- fraction unbound at 5 hours, 1 microM ([3]; % unbound (Cbuffer/Cplasma) 2): 0.093
- fraction unbound at 5 hours, 1 microM ([3]; % unbound (Cbuffer/Cplasma) 3): 0.136
- pIC50 [4]: < 4.82
- pIC50 [5]: < 4.82
- pIC50 [6]: < 4.82
- Control buffer/Buffer at 0.1 uM Cdonor/Creciever [7]: 86%
- recovery at 5 hours, 1 microM ([8]; first table): 103%
- recovery at 5 hours, 1 microM ([8]; second table): 143%

Structure (SMILES): CC(C)C[C@@H]1NC(=O)c2ccc(-c3ccc(N4CCNCC4)cc3)c(c2)CNC(=O)[C@@H]2CCCN2[C@H](C(=O)NC(C)(C)C)[C@H](C)NC(=O)[C@H]([C@@H](C)O)NC(=O)[C@H](CC(=O)O)NC1=O [Compound No. 340]
- oral bioavailability (in words) [9]: significant absorption from the gut and systemic exposure
- CD3+CD4+α4β7+ cell population in mesenteric lymph nodes [10]: significant decrease
- reduction of lesion length vs vehicle group ([10]; Day 5 to Day 8): significantly reduced the lesion length
- reduction of DAI score on Day 8 vs DSS+vehicle ([10]; b.i.d., Day 5 to Day 8): 15%
- lesion/colon length ([10]; vehicle group 40%): 12%
- half-life in the liver ([11]; following oral dosing 40 mg/kg): ~8 h
- AUC(0-t) ([11]; male, CD-1, mouse, in vivo, iv, 5 mg/kg): 778 ng·h/mL
- Tmax ([11]; male, CD-1, mouse, in vivo, po, 40 mg/kg): 5 min
- half-life ([11]; male, CD-1, mouse, in vivo, po, 40 mg/kg, elimination half-life in plasma, following oral dosing 40 mg/kg): ~30 min
- half-life ([11]; male, CD-1, mouse, in vivo, po, 40 mg/kg, half-life in colon, following oral dosing 40 mg/kg): > 1260 min
- F ([11]; i.v. 5 mg/kg): 100%
- F ([11]; p.o. 40 mg/kg): 11.0%
- bioavailability [12]: ~11%
- AUC(0-inf) ([12]; iv, 5 mg/kg): 778 ng·h/mL
- C0 ([12]; iv, 5 mg/kg): 1410 ng/mL
- Cmax ([12]; iv, 5 mg/kg): 1330 ng/mL
- MRT inf ([12]; iv, 5 mg/kg): 41.9 min
- Vd ([12]; iv, 5 mg/kg): 4.49 L/kg
- clearance ([12]; iv, 5 mg/kg): 107 mL/min/kg
- half-life ([12]; iv, 5 mg/kg): 120 min
- AUC(0-inf) ([12]; po, 40 mg/kg): 690 ng·h/mL
- AUC(0-t) ([12]; po, 40 mg/kg): 686 ng·h/mL
- MRT inf ([12]; po, 40 mg/kg): 41.3 min
- half-life ([12]; po, 40 mg/kg): 32.2 min
